One experiment concerns M.tb (H37Rv). Kind of experiment: Microplate alamar blue assay. In kind it is cell-based, Mycobacterium tuberculosis. The conditions noted are these: against M.tb. A general note: Alamar Blue is a resazurin reagent that responds to reducing activity.
In a further experiment the target is NDM-1 (Purified) (Klebsiella pneumoniae, UniProt C7C422). Description: In vitro β-lactamase inhibition screening, NDM-1. In kind it is biochemical. The conditions noted are these: for inhibition of NDM-1 (in words): class B enzymes, effect of N-thiolation.
Another experiment concerns M. vaccae. Kind of experiment: Kirby-Bauer antibacterial agar diffusion assay. In kind it is cell-based. In general terms: In agar diffusion tests the substance spreads into inoculated agar from a disc or well.
The target in the next experiment is CTX-M-14 (Purified) (Escherichia coli, UniProt Q9L5C7). Kind of experiment: In vitro β-lactamase inhibition screening, CTX-M-14. In kind it is biochemical.

By Ki is commonly meant the dissociation constant of the complex between target and ligand, obtained from inhibition or displacement.

Where only a bound is given, the exact number is not on record here.

Sequence of NDM-1 (Purified) (C7C422 29-270 limits assumed): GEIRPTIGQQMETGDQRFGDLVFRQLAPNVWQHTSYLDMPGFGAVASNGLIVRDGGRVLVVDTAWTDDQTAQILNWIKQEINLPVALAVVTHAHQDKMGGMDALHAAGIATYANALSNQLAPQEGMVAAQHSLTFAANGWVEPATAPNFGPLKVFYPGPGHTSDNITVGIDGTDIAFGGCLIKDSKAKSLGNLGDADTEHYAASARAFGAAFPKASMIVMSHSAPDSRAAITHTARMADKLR

`C[C@@H](O[Si](C)(C)C(C)(C)C)[C@H]1C(=O)N[C@@H]1N(OCc1ccccc1)C(=O)c1ccccc1` [Compound 11]: the “anti-TB activity (in words)” value with M.tb (H37Rv) is “did not exhibit noticeable anti-TB activity”.

Regarding `CCOc1ccc(C(=O)N(OCc2ccccc2)C2CC(=O)N2SC)cc1` (centres unmarked) [Compound 8b], on NDM-1 (Purified), the “inhibition of NDM-1 (in words)” value was “potent inhibitor”.

For `CSN1C(=O)[C@@H](NC(=O)COc2ccccc2)[C@@H]1N(OCc1ccccc1)C(=O)c1ccccc1` (racemic) [Compound 24a], in the experiment with M. vaccae, the “activity in the agar studies (in words)” value is given as “not very active”.

For `CSN1C(=O)[C@H]([C@@H](C)O[Si](C)(C)C(C)(C)C)[C@H]1N(OCc1ccccc1)C(=O)c1ccccc1` [Compound 13], the “anti-TB activity (in words)” value in the experiment on M.tb (H37Rv) is “good activity”. The “activity in the agar studies (in words)” value in the experiment on M. vaccae is “not very active”.

In the case of `CSN1C(=O)[C@@H](NC(=O)COc2ccccc2)[C@@H]1N(OCc1ccccc1)C(=O)c1cc([N+](=O)[O-])cc(C(F)(F)F)c1` (racemic) [Compound 24b], the “inhibition of NDM-1 (in words)” value on NDM-1 (Purified) is “potent inhibitor”.

Take `C=CCON(C(=O)c1ccc([N+](=O)[O-])cc1)C1CC(=O)N1SC` (centres unmarked) [Compound 8c]: the “inhibition of NDM-1 (in words)” value against NDM-1 (Purified) is “potent inhibitor”.

On to `C=CCON(C(=O)c1ccc([N+](=O)[O-])cc1)C1CC(=O)N1` (centres unmarked) [Compound 7c], for which the “inhibition of NDM-1 (in words)” value on NDM-1 (Purified) is “inactive”.

For the compound `C[C@@H](O)[C@H]1C(=O)N[C@@H]1N(OCc1ccccc1)C(=O)c1ccccc1` [Compound 12], in the experiment with M.tb (H37Rv), the “anti-TB activity (in words)” value was “inactive”. On CTX-M-14 (Purified) (after silyl removal, compared with CTX-M-14-directed compound 13), the “β-lactamase inhibitory activity (in words)” value was “inactive”.

Regarding `CCOc1ccc(C(=O)N(OCc2ccccc2)C2CC(=O)N2)cc1` (centres unmarked) [Compound 7b], the “inhibition of NDM-1 (in words)” value against NDM-1 (Purified) is “inactive”.

As for `O=C(Cc1ccccc1)N[C@@H]1C(=O)N[C@H]1N(OCc1ccccc1)C(=O)c1ccccc1` [Compound 18], the Ki is 50 nM on CTX-M-14 (Purified) and over 160000 nM at NDM-1 (Purified).

For the compound `CC(C)(C)[Si](C)(C)N1C(=O)CC1N(OCc1ccccc1)C(=O)c1ccccc1` (centres unmarked) [Compound 6], the “activity in the agar studies (in words)” value with M. vaccae is “not very active”.

Source of the values: article PMC4762374 (MedChemComm, 2015).
